Columns and labels:
[1] = biological target: Voltage-dependent calcium channel subunit alpha-2/delta-1 (Homo sapiens) (UniProt P54289); assay: Binding affinity to human alpha2delta1 Voltage-dependent calcium channel assessed as dissociation half life
[2] = biological target: Voltage-dependent calcium channel subunit alpha-2/delta-2 (Homo sapiens) (UniProt Q9NY47)
Description: Binding affinity to human alpha2delta2 Voltage-dependent calcium channel assessed as dissociation half life

[3] = biological target: T1, Sodium/glucose cotransporter 2 (Homo sapiens, UniProt P31639); assay: Inhibition of SGLT2 (unknown origin)
T1 sequence (P31639 whole entry): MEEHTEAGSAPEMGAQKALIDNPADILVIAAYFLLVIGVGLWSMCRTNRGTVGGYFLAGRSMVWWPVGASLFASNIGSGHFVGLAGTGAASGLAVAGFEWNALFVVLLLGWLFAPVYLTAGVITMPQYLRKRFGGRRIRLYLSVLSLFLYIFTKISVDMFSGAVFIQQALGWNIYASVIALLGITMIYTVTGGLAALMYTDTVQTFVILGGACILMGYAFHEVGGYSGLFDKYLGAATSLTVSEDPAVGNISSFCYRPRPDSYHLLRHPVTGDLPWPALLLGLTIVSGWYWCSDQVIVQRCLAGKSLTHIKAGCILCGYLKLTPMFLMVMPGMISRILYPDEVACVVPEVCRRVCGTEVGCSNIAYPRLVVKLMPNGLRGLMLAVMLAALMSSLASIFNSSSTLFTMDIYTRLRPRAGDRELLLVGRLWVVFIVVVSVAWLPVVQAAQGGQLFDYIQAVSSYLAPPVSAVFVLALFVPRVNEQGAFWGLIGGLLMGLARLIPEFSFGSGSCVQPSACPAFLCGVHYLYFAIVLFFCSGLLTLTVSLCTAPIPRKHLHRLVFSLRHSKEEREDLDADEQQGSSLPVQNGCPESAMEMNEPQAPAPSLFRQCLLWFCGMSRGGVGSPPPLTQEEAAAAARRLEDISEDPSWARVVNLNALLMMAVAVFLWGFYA

[4] = Half life in human; assay type: ADME

Chain of Voltage-dependent calcium channel subunit alpha-2/delta-1 (Homo sapiens) (P54289 25-956 limits assumed): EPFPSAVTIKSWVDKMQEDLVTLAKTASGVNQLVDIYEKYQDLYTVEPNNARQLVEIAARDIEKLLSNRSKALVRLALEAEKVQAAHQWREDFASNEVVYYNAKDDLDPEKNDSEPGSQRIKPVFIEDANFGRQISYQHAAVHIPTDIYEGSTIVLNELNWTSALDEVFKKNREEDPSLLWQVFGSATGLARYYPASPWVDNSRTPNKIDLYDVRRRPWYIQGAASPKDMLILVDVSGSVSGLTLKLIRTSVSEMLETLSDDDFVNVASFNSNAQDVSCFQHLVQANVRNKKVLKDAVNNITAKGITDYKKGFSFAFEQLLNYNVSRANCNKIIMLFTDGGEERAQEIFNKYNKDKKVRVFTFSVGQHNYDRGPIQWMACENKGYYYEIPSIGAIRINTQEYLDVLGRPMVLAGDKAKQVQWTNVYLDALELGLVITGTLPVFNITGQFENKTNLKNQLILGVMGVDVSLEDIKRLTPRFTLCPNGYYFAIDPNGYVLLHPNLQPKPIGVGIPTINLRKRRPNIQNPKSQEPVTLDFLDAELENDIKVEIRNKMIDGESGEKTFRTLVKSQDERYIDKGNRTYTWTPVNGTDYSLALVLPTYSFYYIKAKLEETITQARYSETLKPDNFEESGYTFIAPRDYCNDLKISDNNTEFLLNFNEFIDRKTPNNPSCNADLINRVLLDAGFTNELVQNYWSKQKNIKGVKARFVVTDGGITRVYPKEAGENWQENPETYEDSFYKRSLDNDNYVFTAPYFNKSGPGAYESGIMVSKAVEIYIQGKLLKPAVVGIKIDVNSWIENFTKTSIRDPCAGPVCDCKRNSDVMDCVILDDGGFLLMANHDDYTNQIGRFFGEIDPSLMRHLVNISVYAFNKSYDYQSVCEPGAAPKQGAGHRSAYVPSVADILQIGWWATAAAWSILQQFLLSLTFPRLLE
Chain of Voltage-dependent calcium channel subunit alpha-2/delta-1 (Homo sapiens) (P54289 957-1103 limits assumed): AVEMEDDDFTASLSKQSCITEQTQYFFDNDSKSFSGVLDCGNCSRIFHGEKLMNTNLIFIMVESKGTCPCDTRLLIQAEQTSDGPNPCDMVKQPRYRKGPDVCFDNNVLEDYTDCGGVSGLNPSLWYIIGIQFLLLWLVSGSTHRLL
Chain of Voltage-dependent calcium channel subunit alpha-2/delta-2 (Homo sapiens) (Q9NY47 19-1001 limits assumed): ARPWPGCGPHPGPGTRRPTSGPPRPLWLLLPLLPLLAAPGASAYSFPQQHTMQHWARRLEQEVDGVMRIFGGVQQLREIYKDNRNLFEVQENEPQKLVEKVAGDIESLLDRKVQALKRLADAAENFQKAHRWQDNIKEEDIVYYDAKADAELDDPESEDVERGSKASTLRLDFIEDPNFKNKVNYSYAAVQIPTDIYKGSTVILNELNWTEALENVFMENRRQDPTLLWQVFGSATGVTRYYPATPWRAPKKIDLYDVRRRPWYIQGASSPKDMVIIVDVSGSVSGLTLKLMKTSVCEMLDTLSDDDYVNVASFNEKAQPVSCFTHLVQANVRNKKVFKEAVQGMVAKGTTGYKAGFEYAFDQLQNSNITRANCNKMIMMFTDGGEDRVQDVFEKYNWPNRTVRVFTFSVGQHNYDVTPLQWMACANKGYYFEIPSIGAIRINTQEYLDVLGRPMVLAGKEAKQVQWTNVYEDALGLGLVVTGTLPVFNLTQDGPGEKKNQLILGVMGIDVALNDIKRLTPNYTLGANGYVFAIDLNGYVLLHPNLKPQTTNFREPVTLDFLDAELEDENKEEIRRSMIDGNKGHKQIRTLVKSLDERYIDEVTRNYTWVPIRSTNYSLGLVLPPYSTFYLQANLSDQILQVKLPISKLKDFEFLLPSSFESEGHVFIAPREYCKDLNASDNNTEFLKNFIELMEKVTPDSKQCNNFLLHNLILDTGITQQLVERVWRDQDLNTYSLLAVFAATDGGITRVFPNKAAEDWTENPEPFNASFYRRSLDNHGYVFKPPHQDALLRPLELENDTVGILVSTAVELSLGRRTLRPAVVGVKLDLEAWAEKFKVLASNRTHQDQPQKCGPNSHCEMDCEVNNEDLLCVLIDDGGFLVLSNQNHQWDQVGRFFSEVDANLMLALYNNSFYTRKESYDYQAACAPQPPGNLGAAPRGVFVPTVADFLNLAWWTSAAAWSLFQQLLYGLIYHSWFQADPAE
Chain of Voltage-dependent calcium channel subunit alpha-2/delta-2 (Homo sapiens) (Q9NY47 1002-1150 limits assumed): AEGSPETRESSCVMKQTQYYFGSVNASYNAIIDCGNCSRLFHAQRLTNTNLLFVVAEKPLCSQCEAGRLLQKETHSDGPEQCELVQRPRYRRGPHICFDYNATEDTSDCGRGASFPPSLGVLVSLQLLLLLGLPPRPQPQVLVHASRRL

| Structure (SMILES) | T1/2 [1] [h] | T1/2 [2] [h] | Ki [3] [nM] | half-life [4] [min] |
| --- | --- | --- | --- | --- |
| CC(C)C[C@H](CN)CC(=O)O | 1.5 | 1.5 | – | – |
| CCOC(=O)OC[C@H]1O[C@@H](Oc2nn(C(C)C)c(C)c2Cc2ccc(OC(C)C)cc2)[C@H](O)[C@@H](O)[C@@H]1O [REMOGLIFLOZIN ETABONATE] | – | – | 12.4 | 120 |
| CCC1=C[C@@H]2[C@H](C1)C[C@]2(CN)CC(=O)O | > 11 | – | – | – |

— ChEMBL document CHEMBL5226300, “Synthetic Approaches to the New Drugs Approved during 2019” (J Med Chem, 2021)
